From paper PMC6715247 (PLoS Neglected Tropical Diseases, 2019)
Where two headings read alike, the source gives them in different places.

Columns and labels:
[1] = tested on: Human foreskin fibroblast (HFF) cells; experiment: WST-1-based cytotoxicity assay
Description: Human foreskin fibroblast (HFF) cells (purchased from ATCC) were routinely maintained in DMEM supplemented with 10% fetal bovine serum, 100 units/ml penicillin, […] and 1% GlutaMAX™-I (Thermo Fisher Scientific, Waltham, MA). A WST-1-based cytotoxicity assay was performed as previously described. In detail, HFF cells were plated at 1.0×10^4 cells/100 μL medium in each well of a 96-well culture plate, and incubated overnight at 37°C in a 5% CO2 atmosphere to allow cells to adhere to the wells. […] Numbers of viable cells were then assessed using the Premix WST-1 Cell Proliferation Assay System (Takara). […] DMSO was added at 1% as a negative control whereas ionomycin was added at 30 μM as a positive control. As a blank, the above culture medium was used in place of the solutions added.

rEhAPSK = rEhAPSK (Entamoeba histolytica, UniProt C4LUW9); experiment: 96-well plate-based in vitro APSK activity assay (coupling assay, NADH decrease); assay type: biochemical; settings: for Inhibition of rEhAPSK activity: 10 μM compound, 1% DMSO
Sequence of rEhAPSK (C4LUW9 entry or part of it): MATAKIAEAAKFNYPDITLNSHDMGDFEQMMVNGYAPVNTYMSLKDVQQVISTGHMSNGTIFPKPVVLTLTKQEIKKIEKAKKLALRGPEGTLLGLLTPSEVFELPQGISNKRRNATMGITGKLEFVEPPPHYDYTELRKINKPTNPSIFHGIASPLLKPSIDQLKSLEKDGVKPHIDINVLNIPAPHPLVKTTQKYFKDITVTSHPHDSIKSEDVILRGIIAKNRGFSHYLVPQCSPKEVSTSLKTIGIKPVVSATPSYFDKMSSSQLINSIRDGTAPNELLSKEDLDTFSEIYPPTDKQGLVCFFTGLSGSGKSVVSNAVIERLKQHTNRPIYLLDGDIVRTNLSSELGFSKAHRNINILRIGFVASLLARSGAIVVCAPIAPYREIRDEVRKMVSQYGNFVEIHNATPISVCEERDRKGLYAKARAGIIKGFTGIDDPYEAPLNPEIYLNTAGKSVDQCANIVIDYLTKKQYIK
Description: A coupling assay to measure APSK activity was performed as described except a 96-well plate was used. Briefly, each well contained 100 μL reaction mixture, which consisted of 90 μL coupling solution and 10 μL of either compound solution (see below) or 10% DMSO. […] The coupling solution was 100 mM Tris/HCl (pH 8.0), 1 mM MgCl2, 1 mM KCl, 5 mM Mg2ATP, 1 mM NADH, 1 mM PEP, 1 U NP1, 3.5 U PK, 5.0 U LDH, and APSK (≤3 μL). […] As controls, in place of purified APSK solution (rEhAPSK or rHsAPSK), 3 μL of a blank [50 mM Tris/HCl buffer (pH 8.0)], a solvent (elution buffer), a mock (rEhSF2), or denatured APSK suspensions obtained by heat-treatment, were added to the coupling solution. The activity of each sample was calculated after removing the baseline value of the blank control.
For the inhibition assay, 2 μL of each stock solution, which were distributed in a 96-well plate, were transferred to a new plate to make a replicate. After adding 18 μL deionized water to each well and mixing, 10 μL of each diluted solution (100 μM compound solution) was again transferred into a new 96-well plate to make a replicate. Then 90 μL of the coupling solution prepared above was dispensed into each well containing the previously added 10 μL of 100 μM compound solution. As a solvent control, 10% DMSO solution (vol/vol-deionized water) was used in place of compound solution. The final concentrations of each compound and DMSO in a well were 10 μM and 1% (vol/vol), respectively. The assays were performed independently three times, and data are shown as the mean with SD.
One millimolar stock solutions used were either thawed in a replicate (96-well plate) prepared in [18] […] Subsequently, 3.4 μL of the 1 mM and each diluted stock solution were dispensed into wells of a 96-well culture plate, containing 30.6 μL deionized water and mixed well by pipetting. Ten microliters of all resulting solutions were then dispensed into wells of a 96-well plate to make triplicates and then used as described for the above inhibition assay. 10% DMSO solution was used as an inhibitor-free control. Note that the final DMSO concentration in any well was 1% (vol/vol).
In all assays, prepared mixtures in a plate were mixed on a vibrating table equipped with either an EnVision or ARVO plate reader (PerkinElmer) before starting the reaction.

[2] = rEhAPSK, average ± SD, more than three independent experiments, read-out: APSK activity IC50
[3] = read-out: APSK activity IC50, rEhAPSK, average ± SD, more than three independent experiments

| Compound | Inhibition of rEhAPSK activity (rEhAPSK) | IC50 (rEhAPSK; [2]) [µM] | Number of viable HFF cells relative to 1% DMSO control (set as 100%) ([1]; 10 μM, 48 h) | IC50 (rEhAPSK) [µM] | IC50 (rEhAPSK; [3]) [µM] | Number of viable HFF cells relative to 1% DMSO control (set as 100%) ([1]; 10 µM) | HFF cell viability ([1]; 30 μM, positive control) |
| --- | --- | --- | --- | --- | --- | --- | --- |
| O=C(Nc1nnc(S)s1)c1cc(Br)ccc1Cl [E-G-10] | reproducibly inhibited rEhAPSK activity | > 10 | did not affect numbers of viable cells |  |  |  |  |
| Cn1c(=O)c2c(S(C)(=O)=O)snc2n(C)c1=O [C-C-06] | reproducibly inhibited rEhAPSK activity | 8.67 ± 2.62 |  |  |  |  |  |
| COc1ccc(C2=NN(C3CCCCCC3)C(=O)C2(C)C)cc1OCCCCOc1ccc(-c2nnn[nH]2)cc1 [A-C-05] | reproducibly inhibited rEhAPSK activity |  |  | 4.73 ± 1.16 | < 10 |  |  |
| Cc1ccc(C(=O)Nc2ccc(S(=O)(=O)O)c3cc(S(=O)(=O)O)cc(S(=O)(=O)O)c23)cc1NC(=O)c1cccc(NC(=O)Nc2cccc(C(=O)Nc3cc(C(=O)Nc4ccc(S(=O)(=O)O)c5cc(S(=O)(=O)O)cc(S(=O)(=O)O)c45)ccc3C)c2)c1 [B-D-03, suramin, reference compound] | reproducibly inhibited rEhAPSK activity | 0.52 ± 0.102 |  |  |  | did not affect numbers of viable cells |  |
| N=C(N)Nc1ccc(-c2ccc(-c3ccc(NC(=N)N)cc3Cl)o2)c(Cl)c1 [C-F-03] | reproducibly inhibited rEhAPSK activity | 2.03 ± 0.205 | did not affect numbers of viable cells |  |  |  |  |
| C[C@H](CCC(=O)O)C[C@H](C)C[C@H](C)C(=O)/C=C(\O)[C@H](C)C[C@H](C)C/C=C/[C@@H](C)[C@@H](O)[C@@H](C)[C@@H](O)C[C@@H]1CC[C@@](C)([C@H]2CC[C@@](C)([C@@H](C)O)O2)O1 [ionomycin, reference compound] |  |  |  |  |  |  | almost completely abolished cell viability |
| COc1ccc(C2=NN(C3CCCCCC3)C(=O)C3CC=CCC23)cc1OCCCCOc1ccc(-c2nnn[nH]2)cc1 (centres unmarked) [B-C-02] | reproducibly inhibited rEhAPSK activity |  |  |  |  | ~20 − ~60 |  |
| Cc1cc(C)cc(COc2ccc3c(C)c(CCC(=O)O)c(=O)oc3c2C)c1 [A-F-07] | reproducibly inhibited rEhAPSK activity | 7.67 ± 1.25 | did not affect numbers of viable cells |  |  |  |  |
| Cc1cc(C2=NOC(c3cc(Cl)c(F)c(Cl)c3)(C(F)(F)F)C2)ccc1C(=O)NCc1ccc2c(c1)C(C)(C)OB2O (centres unmarked) [B-B-05] | reproducibly inhibited rEhAPSK activity |  |  | 5.73 ± 1.36 | < 10 | did not affect numbers of viable cells |  |

Continued, in another order:

| Inhibition of rEhAPSK activity (rEhAPSK) | IC50 (rEhAPSK; [2]) [µM] | Compound | Number of viable HFF cells relative to 1% DMSO control (set as 100%) ([1]; 10 μM, 48 h) | IC50 (rEhAPSK) [µM] | IC50 (rEhAPSK; [3]) [µM] | Number of viable HFF cells relative to 1% DMSO control (set as 100%) ([1]; 10 µM) | HFF cell viability ([1]; 30 μM, positive control) |
| --- | --- | --- | --- | --- | --- | --- | --- |
| reproducibly inhibited rEhAPSK activity | 0.47 ± 0.0499 | N=C(N)Nc1ccc(-c2ccc(-c3ccc(NC(=N)N)c(Cl)c3)o2)cc1Cl [D-E-10] | did not affect numbers of viable cells |  |  |  |  |
| reproducibly inhibited rEhAPSK activity | > 10 | COc1cccc(-n2nnnc2S(=O)(=O)Cc2ccccc2)c1 [A-F-04] |  |  |  |  |  |
| reproducibly inhibited rEhAPSK activity | 6.57 ± 1.25 | COc1ccc(Cl)cc1NC(=O)CN(C)C(=O)c1cnn(-c2ccccc2)n1 [B-C-08] | did not affect numbers of viable cells |  |  |  |  |
| reproducibly inhibited rEhAPSK activity | > 10 | C[C@]1(COc2ccc(N3CCC(Oc4ccc(OC(F)(F)F)cc4)CC3)cc2)Cn2cc([N+](=O)[O-])nc2O1 [C-F-06, delamanid, reference compound] | did not affect numbers of viable cells |  |  |  |  |
